≈ marks a conversion by molar mass, not a printed value.
Assays:
[1] = tested on: E. coli; details: known MIC for the E. coli strain tested; cited from earlier work
[2] = tested on: E. coli; assay: Antimicrobial susceptibility testing using PZT piezoelectric plate sensor (width mode resonance peak); assay type: cell-based
Experimental: After the PZT sensor was insulated with MPS and coated with APS, it was immersed in 5 ml of DI water to monitor the stability of width mode frequency peak for more than 30 min. If the peak was symmetric and stable, the sensor could be used for the antimicrobial testing.
E. coli suspension in broth was prepared. The concentration was about 10^9 cells/mi. The following procedure was used to replace the broth with DI water, since the ions in the broth might affect the spectrum of the sensor. The suspension was centrifuged at 3000 rpm/min for 5 min and the supernatant was removed. 5 mL of DI water was then added to the tube and the E. coli was re-suspended in DI water.
For the first a few tests (Tests 1-3), a drop of E. coli suspension (20 μl) was put on the sensor surface. After 10 min, the sensor was washed with 400 ml of DI water in a glass beaker 3 times to remove the unbound bacteria. The sensor was then returned to 5 ml of DI water and its width mode peak was monitored. In Test 4, instead of putting a drop of suspension on the sensor, the sensor was soaked in the E. coli suspension for 10 min. The washing step for Test 4 was the same as mentioned above.
After the sensor with E. coli was monitored for 5-10 min, various amounts of ampicillin were added to the DI water every 5 min to determine whether the antibiotics would have an effect on the frequency peak. For Test 1, 1 mg/ml ampicillin solution was made. Different volumes of the ampicillin solution ([…]) were added to the 5 ml of DI water to make the final concentrations of the ampicillin 1, 2, 4, 8, 16, and 32 μg/ml. In Tests 2-4 20 μl of ampicillin solutions of different concentrations (0.25, 0.25, 0.5, 1, 2, and 4 mg/ml) were added each time to make the final concentration of the ampicillin to 1, 2, 4, 8, 16, and 32 μg/ml.
To characterize the roundness of the peak shape, the raw data was smoothed first (as shown in FIG. 15. The amount of variation of the raw data from the smoothed data was calculated as the standard deviation (SD) of the raw data. The width of the top of the peak could be found when the phase angle was 1 times SD (or 2 times SD) smaller than the maximum phase angle in smoothed data. The more round the peak was, the smaller the width of the top of the peak would be. On the other hand, the more flat the peak was, the larger the width of the top of the top of the peak would be.

[3] = pH of ampicillin solution measured using pH paper; assay type: physicochemical; details: 1 mg/ml

For `CC1(C)S[C@@H]2[C@H](NC(=O)[C@H](N)c3ccccc3)C(=O)N2[C@H]1C(=O)O` [ampicillin], the “minimal inhibitory concentration (MIC)” value [1] is listed as 8 µg/mL (≈ 22.9 µM), the “change of SD of peak frequency after adding ampicillin, compared to the SD with E. coli” value ([2]; Test 1) is listed as “decreased a lot” and the “ampicillin concentration at which the SD of the peak frequency reached its minimal point” value ([2]; Test 1 (results similar in Tests 2 and 3), E. coli on sensor in DI water, ampicillin 1-32 μg/ml added every 5 min) is listed as 8 µg/mL. For the same compound, the “change of width of the top of the peak after adding ampicillin” value ([2]; Test 4, different sensor, pH adjusted ampicillin, sensor soaked in E. coli suspension) was “decreased”, the “change of width of the top of the peak after adding ampicillin” value ([2]; Tests 1-3) was “started to decrease” and the “pH value of the ampicillin solution” value [3] was 3.

From patent US10670566B2, “Rapid antimicrobial susceptibility testing using piezoelectric sensor” (Drexel University, priority 2015, dated 2020)
